From patent US4954514A, “(Di-tert-butylhydroxyphenyl)thio derivatives and antiarterioschlerosis compositions thereof” (Shionogi & Co, Ltd, priority 1989, dated 1990)

Assays:
[1] = test system: peroxidized lipid in a homogenate of rat brain; assay: Suppression on production of peroxidized lipid in a homogenate of rat brain (thiobarbituric acid (TBA) method); format: biochemical, SD strain rats; conditions: final concentration 0.01 mM, 37° C., 30 minutes, % of vehicle control
Experimental: Suppression on production of peroxidized lipid in a homogenate of rat brain:
SD strain rats (body weight, about 200 g) were sacrificed by cutting down their heads, and the brains were taken out. The brains were homogenated with a 4-fold amount of 0.05M phosphate-sodium chloride buffer (pH 7.4) and centrifuged at 1000×g for 10 minutes. The supernatant was kept at -80° C. for storage.
The supernatant was diluted with a 2-fold amount of the same phosphate - sodium chloride buffer as above, and 0.48 ml of the dilution was combined with 30 μl of ethanol per se (vehicle) or ethanol solution containing a test compound (final concentration: 0.01 mM), followed by incubation at 37° C. for 30 minutes. The reaction was terminated by addition of 0.01% butylhydroxytoluene (BHT) in ethanol (20 μl) and 25% metaphosphoric acid (125 μl) and subjected to elimination of proteins. The peroxidized lipid in the supernatant was measured by the thiobarbituric acid (TBA) method according to the description in Ohkawa et al.: Anal. Biochem., vol. 95, page 351 (1979). The amount of peroxidized lipid produced was compared with that in the vehicle applied group and expressed in % control.

[2] = test system: hydrochloric acid ethanol-induced gastric ulcer; assay: Effect against hydrochloric acid ethanol-induced gastric ulcer; format: in vivo, male JCD-SD rats; conditions: rat, oral, 30 minutes before hydrochloric acid-ethanol; from lesion index; dose not given
Experimental: Effect against hydrochloric acid ethanol-induced gastric ulcer.
To male JCD-SD rats (weight: 220-275 g) which have been fasted for 24 hours was administered orally 1 ml of 150 mM hydrochloric acid - 60% ethanol. After an hour, the stomachs were excised. The ulcer size as determined by measuring the length of each lesion under stereoscopic microscope and the sum of individual lesion length is expressed as lesion index. The vehicle (1% to 10% ethanol) and the test compounds were administered orally 30 minutes before the hydrochloric acid -ethanol administration. The percent suppression was calculated from the lesion indexes of treated versus untreated animals.

Compound | Peroxidized Lipid Produced (Expressed in % to Control) [1] [%] | Inhibitory Rate (Expressed in % to Control) [2] [%]
CC(C)(C)c1cc(SCCCCCCC#N)cc(C(C)(C)C)c1O [Id, 7-(3,5-Di-tert-butyl-4-hydroxy)phenylthioheptanonitrile] | 5.4 | 77.3 ± 16.8
CC(C)(Sc1cc(C(C)(C)C)c(O)c(C(C)(C)C)c1)Sc1cc(C(C)(C)C)c(O)c(C(C)(C)C)c1 [Probucol, reference compound] | 58.3 | 75.4 ± 22.1
CC(C)(C)c1cc(SCCCCCC(N)=O)cc(C(C)(C)C)c1O [Ij, 6-(3,5-Di-tert-butyl-4-hydroxy)phenylthiohexanamide] | 4.7 | 70.8 ± 8.5
CC(C)(C)c1cc(SCCc2nnn[nH]2)cc(C(C)(C)C)c1O [Ie, 5-[2-(3,5-Di-tert-butyl-4-hydroxy)phenylthioethyl]tetrazole] | 8.1 | 37.2 ± 5.9
CC(C)(C)c1cc(SCCCCc2nnn[nH]2)cc(C(C)(C)C)c1O [Ig, 5-[4-(3,5-Di-tert-butyl-4-hydroxy)phenylthiobutyl]tetrazole] | 4.1 | 49.2 ± 13.0
CC(C)(C)c1cc(SCCCCCCc2nnn[nH]2)cc(C(C)(C)C)c1O [Ii, 5-[6-(3,5-Di-tert-butyl-4-hydroxy)phenylthiohexyl]tetrazole] | 4.4 | 46.6 ± 13.4
CC(C)(C)c1cc(SCCCCCc2nnn[nH]2)cc(C(C)(C)C)c1O [Ih, 5-[5-(3,5-Di-tert-butyl-4-hydroxy)phenylthiopentyl]tetrazole] | 9.5 | 52.5 ± 16.6
CC(C)(C)c1cc(SCCCc2nnn[nH]2)cc(C(C)(C)C)c1O [If, 5-[3-(3,5-Di-tert-butyl-4-hydroxy)phenylthiopropyl]tetrazole] | 5.7 | 52.1 ± 20.0
CC(C)(C)c1cc(SCCCCCC#N)cc(C(C)(C)C)c1O [Ic, 6-(3,5-Di-tert-butyl-4-hydroxy)phenylthiohexanonitrile] | 9.2 | 19.2 ± 8.4
CC(C)(C)c1cc(SCCCC#N)cc(C(C)(C)C)c1O [Ia, 4-(3,5-Di-tert-butyl-4-hydroxy)phenylthiobutylonitrile] | 4.5 | 94.3 ± 14.8
CC(C)(C)c1cc(SCCCCC#N)cc(C(C)(C)C)c1O [Ib, 5-(3,5-Di-tert-butyl-4-hydroxy)phenylthiopentanonitrile] | 3.6 | 61.2 ± 18.4
